One compound from patent US11242327B2, “Analgesic compounds” (RECURIUM IP HOLDINGS, LLC, priority 2017, dated 2022) can be followed below.

The target of one data set is T1, COX-2 (Homo sapiens, UniProt P35354).
T1 sequence (P35354 18-604): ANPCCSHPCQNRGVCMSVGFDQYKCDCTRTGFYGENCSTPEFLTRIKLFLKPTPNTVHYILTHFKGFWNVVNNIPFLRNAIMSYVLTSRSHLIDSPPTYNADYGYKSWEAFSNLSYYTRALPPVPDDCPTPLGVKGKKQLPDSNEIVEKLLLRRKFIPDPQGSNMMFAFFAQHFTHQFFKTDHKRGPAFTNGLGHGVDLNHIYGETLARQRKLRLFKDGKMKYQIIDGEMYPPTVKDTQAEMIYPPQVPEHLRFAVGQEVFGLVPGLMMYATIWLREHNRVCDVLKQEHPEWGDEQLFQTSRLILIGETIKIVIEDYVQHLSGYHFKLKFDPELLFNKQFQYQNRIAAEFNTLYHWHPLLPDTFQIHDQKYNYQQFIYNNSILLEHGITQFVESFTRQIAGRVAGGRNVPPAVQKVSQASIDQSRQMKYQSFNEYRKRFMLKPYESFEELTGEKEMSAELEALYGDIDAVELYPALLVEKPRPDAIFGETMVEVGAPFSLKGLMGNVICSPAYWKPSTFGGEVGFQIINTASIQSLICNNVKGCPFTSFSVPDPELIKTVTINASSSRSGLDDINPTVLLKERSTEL
Briefly: NSAIDS and Opioid Receptor Test: COX-2. It is filed as biochemical. Particulars: 200 μM. On the procedure: Compounds were screened as DMSO solutions at 10 μM, 100 μM, or 200 μM and values represent percent inhibition of control-specific binding. […] As NSAID and opioid mechanisms of action are precluded, a person of ordinary skill in the art understands that undesirable side effects associated with inhibition of COX receptors in NSAIDs and activation of opiate receptors in opioids can be avoided by compounds described herein. Furthermore, opioids are known to lose their analgesic potency after to continued administration. (See Benyamin, et al. “Opioid Complications and Side Effects” Pain Physician 11 (2008): S105-S120). As the data indicates compounds described herein have a different mechanism action compared to opioids, a person of ordinary skill in the art would appreciate that compounds described herein would not be expected to lose their analgesic potency like opioids after continued admininistration.

For another data set, the system named is adult male C57BL/6 mice. Put plainly: Conditioned Place Preference (Abuse) Test. It is filed as in vivo, mouse. Particulars: mouse, in vivo, ip. From the text:
A conditioned place preference (CPP) model was used to assess the reward properties of compounds of formulae (Ie), or a pharmaceutically acceptable salt of any of the foregoing, in adult male C57BL/6 mice. The CPP model apparatus consisted of a Plexiglas© test unit having three (A, B, C) compartments (9 cm×9 cm×16 cm) configured to allow access to all chambers. Compartments A and C had textually distinct flooring and wall marking. Mice were placed in the middle compartment with free access to the other compartments. On day 1 and 2, the “naive chamber preference” was assessed by placing the animal in the middle chamber twice a day (AM and PM) for 30 min on two consecutive days, with the chamber showing the greatest residence time being called the “preferred chamber”. On “drug pairing days” (days 5, 6, 7 and 8) mice were injected IP with vehicle (50 mM citric acid) in the AM in the preferred chamber and the drug/vehicle in the afternoon in the non-preferred chamber for four consecutive days. On the morning of day 9 (the day after the last drug pairing), the “drug chamber preference” was assessed by placing the mouse (absent any injection) in the middle chamber, with free access to all chambers for 30 minutes. This was repeated five days later (day fourteen), with no intervening drug treatment.
The time spent on days 9 and 14 (e.g. […] respectively after the last drug treatment) in the drug associated chamber was the test datum and is represented in FIG. 1. […] In contrast, there was no increase in the non-preferred chamber residence time when the least-preferred chamber was paired with saline, APAP or test compounds 2 or 28 on either days 9 or 14, or days 0 or 5.

In general, inhibition refers to the relative decrease from the control value, in per cent.

In the case of `Cc1sc(C23CC(N)(C2)C3)nc1C(F)(F)F.Cl` [Compound 2, 3-(5-Methyl-4-(trifluoromethyl)thiazol-2-yl)bicyclo[1.1.1]pentan-1-amine hydrochloride], on COX-2, the inhibition at 200 µM is -2%. Further, the “least preferred (drug associated) chamber residence time” value in the data set with adult male C57BL/6 mice was “no increase”.
